Data taken from article PMC10598265, “Effects of the novel selective κ-opioid receptor agonist NP-5497-KA on morphine-induced reward-related behaviors” (Scientific Reports, 2023).
pEC50: −log10 of the molar value.

Legend:
MOP (μ-opioid receptor) = target: T1, MOP (μ-opioid receptor) (Homo sapiens, UniProt P35372); test: TR-FRET cAMP assay (LANCE Ultra), inhibition of forskolin-stimulated cAMP; assay type: cell-based
T1 construct: gene OPRM1; full-length receptor stably expressed in CHO-K1 cells (ChanTest)
T1 sequence (P35372 whole entry): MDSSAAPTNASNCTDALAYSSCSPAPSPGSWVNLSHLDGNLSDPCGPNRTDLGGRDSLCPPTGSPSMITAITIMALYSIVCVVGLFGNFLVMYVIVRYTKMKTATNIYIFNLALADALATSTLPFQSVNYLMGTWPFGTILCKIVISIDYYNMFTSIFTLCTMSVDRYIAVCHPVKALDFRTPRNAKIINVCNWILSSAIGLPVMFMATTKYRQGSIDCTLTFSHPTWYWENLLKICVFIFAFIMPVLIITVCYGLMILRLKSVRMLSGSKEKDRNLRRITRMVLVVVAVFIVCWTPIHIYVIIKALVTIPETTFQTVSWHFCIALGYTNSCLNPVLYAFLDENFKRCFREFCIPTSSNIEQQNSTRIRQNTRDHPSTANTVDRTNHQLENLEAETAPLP
Description: TR-FRET cAMP assay (LANCE Ultra), inhibition of forskolin-stimulated cAMP on MOP (μ-opioid receptor)

DOP (δ-opioid receptor) = target: T2, DOP (δ-opioid receptor) (Homo sapiens, UniProt P41143); test: as above; assay type: cell-based
T2 construct: gene OPRD1; full-length receptor stably expressed in CHO-K1 cells (ChanTest)
T2 sequence (P41143 whole entry): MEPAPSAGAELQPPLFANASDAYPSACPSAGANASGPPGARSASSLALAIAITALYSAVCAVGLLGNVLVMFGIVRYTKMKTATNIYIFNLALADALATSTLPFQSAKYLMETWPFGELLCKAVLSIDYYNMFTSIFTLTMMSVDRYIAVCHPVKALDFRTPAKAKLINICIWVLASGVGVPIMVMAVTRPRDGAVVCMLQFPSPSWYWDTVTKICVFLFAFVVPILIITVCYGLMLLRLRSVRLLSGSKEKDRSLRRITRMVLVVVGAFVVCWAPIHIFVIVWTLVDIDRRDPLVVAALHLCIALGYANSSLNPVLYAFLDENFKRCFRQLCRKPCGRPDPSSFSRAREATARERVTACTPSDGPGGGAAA
Description: TR-FRET cAMP assay (LANCE Ultra), inhibition of forskolin-stimulated cAMP on DOP (δ-opioid receptor)

CN(C(=O)/C=C/c1ccoc1)[C@@H]1CC[C@@]2(O)[C@H]3Cc4ccc(O)c5c4[C@@]2(CCN3CC2CC2)[C@H]1O5 [Nalfurafine]
pEC50 (MOP (μ-opioid receptor)): 8.11 | pEC50 (DOP (δ-opioid receptor)): 6.88
